Source: patent publication US20040138301A1, “Chemical uncouplers for the treatment of obesity” (priority 2002, published 2004)
Read-outs that look alike come from different tables or passages of the source.

Columns and labels:
[1] = tested on: HEP-G2 cells; assay: cells; conditions: Homo sapiens; for EC50: HepG2, 3 h
Procedure, shortened: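 HEP-G2 cells were treated with compound for 3 h at 37 °C in MEM/0.5% BSA containing 10 μCi/ml D-(3-^3H(N))-glucose, then lysed with TCA; ^3H-water released via the respiratory chain was recovered by evaporation at 50 °C and counted. Values are corrected for non-specific and basal counts, expressed as % of maximal FCCP or DNP stimulation, and EC50 is from a variable-slope sigmoidal fit.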

[2] = tested on: isolated mitochondria; assay: Assay (II): effect of chemical uncouplers on mitochondrial respiration using isolated mitochondria (oxygen consumption); assay type: biochemical
Description: Assay (II)—The Effect of Chemical Uncouplers on Mitochondrial Respiration Using Isolated Mitochondria.
This assay is used to investigate if the increase in glucose utilisation caused by the test compounds observed in the glucose utilisation assay is due to an increase in the respiration of the mitochondria. This is done by measuring oxygen consumption in isolated mitochondria.
A Clark oxygen electrode is used to determine the oxygen consumption. The isolated mitochondria are added to medium containing oxygen and nutrients (e.g. Succinate) and the rate of oxygen consumptions is measured, when stabilized a small amount of ADP is added to increase the respiration and an increase in the rate of oxygen consumption is measured. When the rate of oxygen consumption again has stabilized the test compound is added and a further increase in oxygen consumption is seen. This experiment is done with and without the addition of oligomycin which is an inhibitor of the ATP-synthase. Finally, the test compound is examined without adding ADP. If the test compound stimulates the rate of oxygen consumption in all setups, it is regarded as a chemical uncoupler.

[3] = tested on: FSK-4 cells; assay: Assay (IV): Glucose utilisation in FSK-4 cells; assay type: cell-based; conditions: for EC50: read-out: FSK4 EC50; for Emax: read-out: FSK4 Emax (% of FCCP)
[4] = humans; cited from earlier work
[5] = HepG2, read-out: HEP-G2 Emax (% of FCCP)
[6] = HepG2, read-out: HEP-G2 Emax (μM)
[7] = read-out: HEP-G2 EC50, HEP-G2 cells, glucose utilisation, 3 hours incubation
[8] = HepG2, read-out: HEP-G2 Emax (% of FCCP), HEP-G2 cells, maximal stimulation relative to FCCP
[9] = HepG2, read-out: HEP-G2 Emax (μM), HEP-G2 cells, concentration at which Emax is achieved (CEmax)

Structure (SMILES)	EC50 ([1]; read-out: HEP-G2 EC50) [µM]	Emax [1, 5] [%]	EC (Emax) [1, 6] [µM]	Mito State-4 [2]	EC50 ([3]; 24 h) [µM]	Emax [3] [%]	lowest dose which could be lethal relative to average dose giving a desired 50% increase in basal metabolic rate [4]	EC50 [1, 7] [µM]	Emax [1, 8] [%]	EC (Emax) [1, 9] [µM]	EC50 ([3]; FSK-4 cells, glucose utilisation, 24 hours incubation) [µM]	Emax ([3]; FSK-4 cells, maximal efficacy relative to FCCP) [%]
CC(CCC(=O)O)(c1ccc(O)c([N+](=O)[O-])c1)c1ccc(O)c([N+](=O)[O-])c1 [Example 1, 4,4-Bis-(4-Hydroxy-3-Nitrophenyl)-Valeric Acid]	40	45	100	Ok	–	–	–	–	–	–	–	–
CC(C)(C)c1cc(C=C(C#N)C#N)cc(C(C)(C)C)c1O [Example 25, 2,6-Di-t-Butyl-4-(2′,2′-Dicyanovinyl)Phenol, reference compound]	0.48	100	10	Ok	0.01	110	–	–	–	–	–	–
O=[N+]([O-])c1ccc(O)c([N+](=O)[O-])c1 [Example 26, 2,4-Dinitrophenol, reference compound]	225	100	500	Ok	90	95	twice	–	–	–	–	–
CC(C)(C)c1cc(C(=O)Nc2ccc([N+](=O)[O-])cc2Cl)c(O)c(C(C)(C)C)c1 [Example 40, 3,5-Di-Tert-Butyl-N-(2-Chloro-4-Nitro-Phenyl)-2-Hydroxy-Benzamide]	–	–	–	Ok	–	–	–	0.58	105	3	–	–
CC(C)(C)c1cc([N+](=O)[O-])cc(C(C)(C)C)c1O [Example 72, 2,6-Di-Tert-Butyl-4-Nitro-Phenol]	13	100	100	Ok	–	–	–	–	–	–	–	–
CCOC(=O)/C(C#N)=C(/C)c1cc(C(C)(C)C)c(O)c(C(C)(C)C)c1 [Example 82, 2-Cyano-3-(3,5-Di-Tert-Butyl-4-Hydroxy-Phenyl)-But-2-Enoic Acid Ethyl Ester]	–	–	–	–	–	–	–	10	100	30	11	90
